Measured values: patent publication US20150202192A1, “PHARMACEUTICAL COMPOSITION FOR TREATING GASTRO-OESOPHAGEAL REFLUX DISEASE” (priority 2012, published 2015)

Experiments:
[1] = Clinical study in GERD patients: hydrogen breathing test for bacterial overgrowth syndrome; assay type: in vivo, human; conditions: n = 10
Source text: (§1) The study included 100 patients with endoscopically negative GERD form, i.e. men and women aged 19 to 50 years old infected with H. pilori.
(§2) All the patients received treatment on a similar pattern: they received the composition of a proton pump inhibitor and a prebiotic 2 times a day for 56 days.
Before and after treatment course (on Day 56) all the patients were subjected to hydrogen breathing test on the presence of bacterial overgrowth syndrome.

[2] = Clinical study in GERD patients: tolerability (diarrhea, flatulence, AE necessitating discontinuation); assay type: in vivo, human; conditions: n = 10
Source text: as §1
All the patients were divided into 10 groups of 10 persons each, of whom 5 groups (I-V) were experimental ones, while 5 groups (VI-X) were control ones.
In the experimental groups patients received orally the claimed dosage forms based on PPI and a prebiotic; Group I—a composition which contained omeprazole and lactulose as active components; Group II—a composition which contained pantoprazole and lactitol as active components; Group III—a composition which contained lansoprazole and inulin as active components; Group IV—a composition which contained rabeprazole and fructooligosaccharides as active components; Group V—a composition which contained esomeprazole and lactulose as active components.
In the control groups the patients received PPI monotherapy orally: Group VI—omeprazole; Group VII—pantoprazole; Group VIII—lansoprazole; Group IX—rabeprazole and Group X—esomeprazole.
as §2
The patients kept their diaries in which they made daily records of the time when they took drugs, recorded disease symptom severity according to Likert scale, severity of meteorism, defecation frequency, etc.
(§3) Repeated visits were made in 2 and 5 weeks after the treatment start; during the visits treatment efficacy and safety were determined, besides, it was determined if the therapy could be continued. In 56 days (8 weeks) after the therapy start, the patient came to a visit, wherein efficacy and safety of treatment was evaluated and the treatment was terminated. In 11 weeks after the treatment start, the final visit was made which included esophagogastroduodenoscopy with byopsy of the antrum and the gastric corpus for HP detection.

[3] = Clinical study in GERD patients: quality of life by Visual Analog Scale; assay type: in vivo, human; conditions: n = 10
Helicobacter pylori = assay: Clinical study in GERD patients: biopsy of antrum and gastric corpus for Helicobacter pylori (cytology/histology, urease test); assay type: in vivo, human; conditions: n = 10
Source text: as §1, §2
In all patients, before treatment and in 4 weeks (1 month) after completion of the treatment course the biopsy of the antrum and gastric corpus was made for the presence of Helicobacter pylori. For HP diagnostics the following was used:
1. Cytological and histological biopsy of mucosa of the antrum and gastric corpus obtained in gastroscopy.
2. Urease test, in which the mucous membrane biopsy material obtained from the antrum and the gastric corpus were examined for the presence of urease, an enzyme specific for Helicobacter pylori.
as §3

[4] = Clinical study in GERD patients: symptom severity (pyrosis, regurgitation) on Likert scale; assay type: in vivo, human; conditions: n = 10; for medium term arresting pyrosis / medium term arresting regurgitation: oral, 2 times a day for 56 days
intestinal bacteria = conditions: humans, 3 g daily dose; cited from earlier work
[5] = after treatment, biopsy after completion of the 56-day course
[6] = after treatment (oral, 2 times a day for 56 days)

Structure (SMILES)	Presence bacterial overgrowth syndrome ([1]; after treatment (Day 56)) [%]	Presence bacterial overgrowth syndrome ([1]; before treatment) [%]	AE, necessitating discontinuation of therapy ([2]; after treatment (56 days)) [%]	Presence diarrhea ([2]; after treatment (56 days)) [%]	Presence flatulence ([2]; after treatment (56 days)) [%]	Presence diarrhea ([2]; before treatment) [%]	Presence flatulence ([2]; before treatment) [%]	Quality of life no VAC ([3]; after treatment (56 days)) [MM]	Quality of life no VAC ([3]; before treatment) [MM]	release Helicobacter pylori in the antrum (Helicobacter pylori; [5]) [%]	release Helicobacter pylori in the stomach (Helicobacter pylori; [5]) [%]	release Helicobacter pylori in the antrum (Helicobacter pylori; before treatment) [%]	release Helicobacter pylori in the stomach (Helicobacter pylori; before treatment) [%]	Intensity pyrosis on scale Likert [4, 6] [ball]	Intensity regurgitation on scale Likert [4, 6] [ball]	Intensity pyrosis on scale Likert ([4]; before treatment) [ball]	Intensity regurgitation on scale Likert ([4]; before treatment) [ball]	medium term arresting pyrosis [4] [days]	medium term arresting regurgitation [4] [days]	also measured
COc1ccc2nc([S@@+]([O-])Cc3ncc(C)c(OC)c3C)[nH]c2c1 [group X, esomeprazole]	50	10	0	20	60	0	10	87.6 ± 21.2	58.1 ± 18.9	100	80	100	20	1.1 ± 0.2	1.3 ± 0.1	3.5 ± 0.9	3.6 ± 1.1	7.7 ± 3.1	7.2 ± 3.1	–
COc1ccnc(C[S+]([O-])c2nc3ccc(OC(F)F)cc3[nH]2)c1OC (stereo not shown) [group VII, pantoprazole]	40	10	0	20	50	0	10	87.6 ± 21.2	58.1 ± 18.9	100	80	100	20	1.0 ± 0.4	1.2 ± 0.3	3.3 ± 0.5	3.4 ± 1.1	7.5 ± 3.1	7.6 ± 3.4	–
Cc1c(OCC(F)(F)F)ccnc1C[S+]([O-])c1nc2ccccc2[nH]1 (stereo not shown) [group VIII, lansoprazole]	50	10	0	20	60	0	10	84.2 ± 21.5	57.4 ± 17.5	100	70	100	20	1.1 ± 0.5	1.1 ± 0.2	3.4 ± 0.7	3.6 ± 1.1	7.8 ± 3.3	7.7 ± 3.2	–
COCCCOc1ccnc(C[S+]([O-])c2nc3ccccc3[nH]2)c1C (stereo not shown) [group IX, rabeprazole]	40	10	0	20	50	0	20	87.3 ± 19.5	58.5 ± 20.2	100	80	100	20	1.2 ± 0.6	1.1 ± 0.3	3.6 ± 0.7	3.5 ± 1.1	7.8 ± 3.5	7.5 ± 3.4	–
COc1ccc2[nH]c([S+]([O-])Cc3ncc(C)c(OC)c3C)nc2c1 (stereo not shown) [group VI, omeprazole]	50	10	0	20	60	0	20	87.6 ± 21.2	58.1 ± 18.9	100	70	100	20	1.2 ± 0.6	1.1 ± 0.3	3.6 ± 0.8	3.5 ± 1.2	7.8 ± 3.5	7.5 ± 3.4	–
OC[C@H]1O[C@@H](O[C@@H]2[C@@H](CO)OC(O)(CO)[C@H]2O)[C@H](O)[C@@H](O)[C@H]1O (mixture of isomers) [lactulose]	–	–	–	–	–	–	–	–	–	–	–	–	–	–	–	–	–	–	–	number of Bifidobacteria and Lactobacillus (intestinal bacteria): significant increase; number of Clostridium perfringens, Bacteroides, Enterobacteriaceae, and Streptococcus (intestinal bacteria): decrease
